Where “and” joins values, the source holds several entries; their conditions need not be identical. Identical values can stand only once.
Tests used:
Assay in all cases: KINOMEscan competition binding
Settings in all cases: compound 10.0 µM
[1] = system: ABL1 (human), P00519 [T315I]
BMPR1A (human) = BMPR1A (human) (UniProt P36894)
CHEK2 (human) = CHEK2 (human) (UniProt O96017)
CSF1R (human) = CSF1R (human) (UniProt P07333)
EGFR (human) = EGFR (human) (UniProt P00533)
[2] = system: EGFR (human), P00533 [746-750 del]
[3] = system: EGFR (human), P00533 [747-751 del / S ins]
[4] = system: EGFR (human), P00533 [752-759 del]
[5] = system: EGFR (human), P00533 [A750P; 747-749 del]
[6] = system: EGFR (human), P00533 [G719C]
[7] = system: EGFR (human), P00533 [G719S]
[8] = system: EGFR (human), P00533 [L858R]
[9] = system: EGFR (human), P00533 [L861Q]
[10] = system: EGFR (human), P00533 [P753S; 747-752 del]
[11] = system: EGFR (human), P00533 [T790M/L858R]
FYN (human) = FYN (human) (UniProt P06241)
Chain of FYN (human) (P06241 whole entry, looked up): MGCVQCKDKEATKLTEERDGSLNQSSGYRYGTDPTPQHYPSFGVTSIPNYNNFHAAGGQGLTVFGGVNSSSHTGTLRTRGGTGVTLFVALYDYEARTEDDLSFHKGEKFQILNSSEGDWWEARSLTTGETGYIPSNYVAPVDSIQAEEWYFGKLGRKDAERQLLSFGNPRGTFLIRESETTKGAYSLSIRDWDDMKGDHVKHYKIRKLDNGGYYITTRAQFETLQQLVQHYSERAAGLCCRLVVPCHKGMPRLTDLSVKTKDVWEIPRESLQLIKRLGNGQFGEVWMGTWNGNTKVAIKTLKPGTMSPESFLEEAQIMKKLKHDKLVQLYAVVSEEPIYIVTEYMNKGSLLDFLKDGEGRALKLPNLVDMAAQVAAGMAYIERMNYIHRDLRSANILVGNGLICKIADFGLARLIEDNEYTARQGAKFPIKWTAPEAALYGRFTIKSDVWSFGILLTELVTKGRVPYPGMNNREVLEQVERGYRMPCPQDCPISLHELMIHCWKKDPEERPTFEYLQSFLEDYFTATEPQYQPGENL

HIPK1 (human) = HIPK1 (human) (UniProt Q86Z02)
MAP4K5 (human) = MAP4K5 (human) (UniProt Q9Y4K4)
MUSK (human) = MUSK (human) (UniProt O15146)
[12] = system: PIK3CA (human), P42336 [E545K]
PIP4K2B (human) = PIP4K2B (human) (UniProt P78356)
Chain of PIP4K2B (human) (P78356 whole entry, looked up): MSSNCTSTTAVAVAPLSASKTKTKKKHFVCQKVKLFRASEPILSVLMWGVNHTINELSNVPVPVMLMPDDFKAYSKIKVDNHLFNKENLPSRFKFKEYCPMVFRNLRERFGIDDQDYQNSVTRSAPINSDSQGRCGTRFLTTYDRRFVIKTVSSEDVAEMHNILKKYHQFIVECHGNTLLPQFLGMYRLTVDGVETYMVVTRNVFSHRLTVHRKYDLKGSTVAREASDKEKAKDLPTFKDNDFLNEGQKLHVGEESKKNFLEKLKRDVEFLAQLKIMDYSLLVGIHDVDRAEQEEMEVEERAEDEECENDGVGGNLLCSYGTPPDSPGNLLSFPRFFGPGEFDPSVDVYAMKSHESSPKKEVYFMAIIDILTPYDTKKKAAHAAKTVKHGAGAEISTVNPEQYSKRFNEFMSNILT

PRKAA2 (human) = PRKAA2 (human) (UniProt P54646)
Chain of PRKAA2 (human) (P54646 whole entry, looked up): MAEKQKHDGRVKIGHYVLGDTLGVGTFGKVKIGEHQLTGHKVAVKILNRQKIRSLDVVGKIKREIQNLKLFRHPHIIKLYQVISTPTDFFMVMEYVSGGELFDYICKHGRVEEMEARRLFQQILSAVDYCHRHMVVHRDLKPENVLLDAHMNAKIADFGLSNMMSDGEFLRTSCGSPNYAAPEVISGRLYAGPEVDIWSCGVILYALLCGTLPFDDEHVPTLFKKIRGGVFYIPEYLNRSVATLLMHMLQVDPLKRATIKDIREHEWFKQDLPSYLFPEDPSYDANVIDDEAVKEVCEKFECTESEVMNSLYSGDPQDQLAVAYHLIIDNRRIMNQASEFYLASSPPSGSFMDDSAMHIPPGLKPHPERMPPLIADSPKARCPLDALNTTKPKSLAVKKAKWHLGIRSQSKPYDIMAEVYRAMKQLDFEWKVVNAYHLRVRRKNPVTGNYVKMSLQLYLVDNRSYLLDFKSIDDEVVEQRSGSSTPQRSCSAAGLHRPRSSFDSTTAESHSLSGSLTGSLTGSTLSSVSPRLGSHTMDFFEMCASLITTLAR

RPS6KA3 KD1 (human) = RPS6KA3 KD1 (human) (UniProt P51812)
SRPK3 (human) = SRPK3 (human) (UniProt Q9UPE1)
STK10 (human) = STK10 (human) (UniProt O94804)
Chain of STK10 (human) (O94804 whole entry, looked up): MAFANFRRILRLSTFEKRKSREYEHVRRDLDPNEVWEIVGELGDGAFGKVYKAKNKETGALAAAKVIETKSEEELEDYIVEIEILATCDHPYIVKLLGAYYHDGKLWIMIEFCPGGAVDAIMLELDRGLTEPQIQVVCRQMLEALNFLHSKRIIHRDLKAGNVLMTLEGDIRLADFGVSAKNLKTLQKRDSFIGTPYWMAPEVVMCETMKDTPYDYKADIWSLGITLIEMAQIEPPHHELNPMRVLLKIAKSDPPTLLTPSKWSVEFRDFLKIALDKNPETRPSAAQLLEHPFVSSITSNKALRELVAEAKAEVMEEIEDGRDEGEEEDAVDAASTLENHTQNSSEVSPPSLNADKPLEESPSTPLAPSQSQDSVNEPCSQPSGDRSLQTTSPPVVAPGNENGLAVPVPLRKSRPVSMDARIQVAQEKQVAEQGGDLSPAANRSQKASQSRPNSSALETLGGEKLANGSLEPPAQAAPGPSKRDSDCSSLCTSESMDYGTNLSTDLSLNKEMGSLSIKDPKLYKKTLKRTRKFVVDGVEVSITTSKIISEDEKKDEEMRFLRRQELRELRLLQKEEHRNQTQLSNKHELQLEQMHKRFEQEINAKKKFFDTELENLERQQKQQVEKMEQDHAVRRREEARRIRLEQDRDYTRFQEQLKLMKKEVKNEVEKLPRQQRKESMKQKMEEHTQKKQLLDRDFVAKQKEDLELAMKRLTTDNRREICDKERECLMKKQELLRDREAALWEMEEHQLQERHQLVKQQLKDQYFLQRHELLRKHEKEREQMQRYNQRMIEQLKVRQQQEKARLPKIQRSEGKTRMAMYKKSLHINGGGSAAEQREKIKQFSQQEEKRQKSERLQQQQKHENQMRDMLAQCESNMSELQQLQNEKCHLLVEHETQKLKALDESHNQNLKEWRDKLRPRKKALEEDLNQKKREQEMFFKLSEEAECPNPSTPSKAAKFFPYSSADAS

TAOK1 (human) = TAOK1 (human) (UniProt Q7L7X3)
Chain of TAOK1 (human) (Q7L7X3 whole entry, looked up): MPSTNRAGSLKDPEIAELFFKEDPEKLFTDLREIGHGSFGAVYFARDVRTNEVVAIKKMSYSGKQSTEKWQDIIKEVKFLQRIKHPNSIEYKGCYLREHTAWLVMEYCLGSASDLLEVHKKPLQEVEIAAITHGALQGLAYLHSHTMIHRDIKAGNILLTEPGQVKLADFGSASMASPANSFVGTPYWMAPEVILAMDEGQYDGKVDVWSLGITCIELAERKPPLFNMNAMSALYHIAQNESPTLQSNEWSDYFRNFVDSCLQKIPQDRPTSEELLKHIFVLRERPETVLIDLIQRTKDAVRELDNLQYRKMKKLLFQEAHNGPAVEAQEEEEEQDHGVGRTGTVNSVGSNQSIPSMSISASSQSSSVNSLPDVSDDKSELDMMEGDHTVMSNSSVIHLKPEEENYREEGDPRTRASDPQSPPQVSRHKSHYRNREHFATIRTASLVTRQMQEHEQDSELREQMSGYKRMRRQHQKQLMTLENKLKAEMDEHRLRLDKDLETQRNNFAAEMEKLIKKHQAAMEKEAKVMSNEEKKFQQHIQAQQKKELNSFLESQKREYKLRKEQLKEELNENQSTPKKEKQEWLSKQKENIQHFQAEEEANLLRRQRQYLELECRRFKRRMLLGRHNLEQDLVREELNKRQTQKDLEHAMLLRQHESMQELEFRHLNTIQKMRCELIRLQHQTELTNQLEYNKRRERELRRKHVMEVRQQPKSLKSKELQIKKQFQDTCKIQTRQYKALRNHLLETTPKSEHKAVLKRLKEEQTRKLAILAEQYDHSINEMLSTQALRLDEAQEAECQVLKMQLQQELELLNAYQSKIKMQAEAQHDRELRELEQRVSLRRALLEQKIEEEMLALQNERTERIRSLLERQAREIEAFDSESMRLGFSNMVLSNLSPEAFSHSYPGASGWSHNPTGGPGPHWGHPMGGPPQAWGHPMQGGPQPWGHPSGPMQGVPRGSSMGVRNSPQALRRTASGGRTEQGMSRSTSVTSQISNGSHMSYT

TTK (human) = TTK (human) (UniProt P33981)
ULK3 (human) = ULK3 (human) (UniProt Q6PHR2)

Chain of BMPR1A (human) (P36894 whole entry, looked up): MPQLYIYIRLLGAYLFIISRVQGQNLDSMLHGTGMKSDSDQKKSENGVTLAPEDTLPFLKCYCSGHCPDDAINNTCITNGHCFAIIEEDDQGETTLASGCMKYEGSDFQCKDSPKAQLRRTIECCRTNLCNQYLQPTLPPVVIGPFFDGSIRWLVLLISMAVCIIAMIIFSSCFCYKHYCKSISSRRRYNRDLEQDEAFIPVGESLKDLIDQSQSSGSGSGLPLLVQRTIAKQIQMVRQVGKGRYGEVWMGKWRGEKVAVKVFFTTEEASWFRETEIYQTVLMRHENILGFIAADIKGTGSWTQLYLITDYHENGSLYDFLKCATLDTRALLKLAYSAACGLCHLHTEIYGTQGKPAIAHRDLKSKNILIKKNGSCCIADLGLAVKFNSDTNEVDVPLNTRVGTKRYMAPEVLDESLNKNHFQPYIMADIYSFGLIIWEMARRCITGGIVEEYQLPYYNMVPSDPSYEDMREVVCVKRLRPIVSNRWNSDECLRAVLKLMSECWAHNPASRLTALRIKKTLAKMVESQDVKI
Chain of CSF1R (human) (P07333 whole entry, looked up): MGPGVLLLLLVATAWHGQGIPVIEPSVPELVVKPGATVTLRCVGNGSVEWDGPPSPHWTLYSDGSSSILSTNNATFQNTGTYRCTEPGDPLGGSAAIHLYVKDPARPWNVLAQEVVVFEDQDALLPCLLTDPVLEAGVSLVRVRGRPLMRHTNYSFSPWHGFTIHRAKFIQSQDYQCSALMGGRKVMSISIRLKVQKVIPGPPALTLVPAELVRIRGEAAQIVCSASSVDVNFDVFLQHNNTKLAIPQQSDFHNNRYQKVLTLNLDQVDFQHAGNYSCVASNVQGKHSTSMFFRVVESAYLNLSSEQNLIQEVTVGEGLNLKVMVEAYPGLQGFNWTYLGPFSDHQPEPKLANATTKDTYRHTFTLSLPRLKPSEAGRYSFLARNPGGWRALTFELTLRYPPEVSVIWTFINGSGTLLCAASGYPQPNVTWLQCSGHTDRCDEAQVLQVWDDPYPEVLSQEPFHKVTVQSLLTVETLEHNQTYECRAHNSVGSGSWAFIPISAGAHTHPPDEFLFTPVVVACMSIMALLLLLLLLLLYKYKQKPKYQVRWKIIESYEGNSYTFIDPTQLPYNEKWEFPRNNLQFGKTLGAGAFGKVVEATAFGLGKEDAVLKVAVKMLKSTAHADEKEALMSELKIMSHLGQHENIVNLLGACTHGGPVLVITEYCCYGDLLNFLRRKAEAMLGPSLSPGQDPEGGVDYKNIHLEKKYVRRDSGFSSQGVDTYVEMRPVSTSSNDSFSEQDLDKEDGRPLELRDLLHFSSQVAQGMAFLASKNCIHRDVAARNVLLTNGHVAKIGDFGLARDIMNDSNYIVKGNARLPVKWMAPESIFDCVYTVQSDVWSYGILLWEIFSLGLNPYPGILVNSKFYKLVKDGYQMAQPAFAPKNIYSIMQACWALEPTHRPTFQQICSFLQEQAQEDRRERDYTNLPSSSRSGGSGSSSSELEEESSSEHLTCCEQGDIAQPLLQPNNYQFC

SMILES | kinase still bound, per cent of control [1] [%] | kinase still bound, per cent of control (BMPR1A (human)) [%] | kinase still bound, per cent of control (CHEK2 (human)) [%] | kinase still bound, per cent of control (CSF1R (human)) [%] | kinase still bound, per cent of control (EGFR (human)) [%] | kinase still bound, per cent of control [2] [%] | kinase still bound, per cent of control [3] [%] | kinase still bound, per cent of control [4] [%] | kinase still bound, per cent of control [5] [%] | kinase still bound, per cent of control (FYN (human)) [%] | kinase still bound, per cent of control (HIPK1 (human)) [%] | kinase still bound, per cent of control (MAP4K5 (human)) [%] | kinase still bound, per cent of control (MUSK (human)) [%] | kinase still bound, per cent of control [12] [%] | kinase still bound, per cent of control (PIP4K2B (human)) [%] | kinase still bound, per cent of control (PRKAA2 (human)) [%] | kinase still bound, per cent of control (SRPK3 (human)) [%] | kinase still bound, per cent of control (STK10 (human)) [%] | kinase still bound, per cent of control (TTK (human)) [%] | kinase still bound, per cent of control (ULK3 (human)) [%] | also measured
Cn1cc(C2=C(c3ccc(Cl)cc3Cl)C(=O)NC2=O)c2ccccc21 | 80 | 100 | 90 | 87 | 100 | 77 | 91 | 94 | 85 | 96 | 5 | 83 | 100 | 100 | 86 | 52 | 100 | 97 | 83 | 100 | kinase still bound, per cent of control [6]: 100%; kinase still bound, per cent of control [7]: 99%; kinase still bound, per cent of control [8]: 100%; kinase still bound, per cent of control [9]: 83%; kinase still bound, per cent of control [10]: 99%; kinase still bound, per cent of control [11]: 97%; kinase still bound, per cent of control (RPS6KA3 KD1 (human)): 100%; kinase still bound, per cent of control (TAOK1 (human)): 90% and 98%
COc1ccc(CNC(=O)Nc2ncc([N+](=O)[O-])s2)cc1 | 100 | 78 |  | 97 |  |  |  |  |  | 87 | 58 | 100 | 100 | 100 | 69 | 96 | 100 | 100 | 100 | 95 | kinase still bound, per cent of control (TAOK1 (human)): 85% and 100%
Cc1cnc(-c2cnc(NCCNc3ccc(C#N)cn3)nc2-c2ccc(Cl)cc2Cl)[nH]1 | 100 | 100 |  | 90 |  |  |  |  |  | 100 | 87 | 100 | 100 | 100 | 98 | 56 | 100 | 100 | 86 | 100 | 
O=C1Nc2cc(Br)ccc2/C1=C1/Nc2ccccc2/C1=N\O | 0.65 | 66 | 38 | 1.2 | 44 | 13 | 24 | 29 | 17 | 1.6 | 7.6 | 9.2 | 83 | 100 | 1.5 | 4.2 | 0.25 | 75 | 3.8 | 1.3 | kinase still bound, per cent of control [6]: 39%; kinase still bound, per cent of control [7]: 35%; kinase still bound, per cent of control [8]: 32%; kinase still bound, per cent of control [9]: 34%; kinase still bound, per cent of control [10]: 38%; kinase still bound, per cent of control [11]: 53%; kinase still bound, per cent of control (RPS6KA3 KD1 (human)): 80%

From the kinase profiling compilation of Christmann-Franck et al. (2016)
